Experimental data reported in ChEMBL document CHEMBL4483862, “Open-source discovery of chemical leads for next-generation chemoprotective antimalarials” (2018).

System: Plasmodium berghei
Assay: Luciferase/luciferin-expressing antifolate-resistant parasites were used to infect a culture of HepG2 cells that were pre-incubated with compounds. Infected hepatocytes emit light due to the luciferase reaction. Assay results are presented as the percent inhibition of light emission compared to control. […]
Assay type: functional
Details: sporozoite; for IC90: read-out: LUCIFERASE INFECTION ASSAY - IC90

| SMILES | IC90 [µM] | other results |
| --- | --- | --- |
| CC(C)c1ccccc1-n1c(SCC(=O)N2CCc3ccccc3C2)nc2ccccc2c1=O | > 10 | IC50 (FFLUC_HILL_SLOPE 14.4, FFLUC_R_SQUARED 0.575, read-out: LUCIFERASE INFECTION ASSAY - IC50): > 10 µM |
| COc1c(C)cc(C(O)c2nc(-c3cccc4ccccc34)c[nH]2)cc1C (configuration not stated) | > 9.21 | IC50 (FFLUC_HILL_SLOPE 13.5, FFLUC_R_SQUARED 0.422, HEPG2TOX_HILL_SLOPE 8.48, HEPG2TOX_R_SQUARED 0.286, read-out: LUCIFERASE INFECTION ASSAY - IC50): > 9.21 µM |
| COc1ccc(Sc2ccc([N+](=O)[O-])c3nonc23)cc1 | 10.7 | IC50 (FFLUC_HILL_SLOPE 14.3, FFLUC_R_SQUARED 0.436, HEPG2TOX_HILL_SLOPE 9.62, HEPG2TOX_R_SQUARED 0.82, PBLUC_HILL_SLOPE 22.9, PBLUC_R_SQUARED 0.553, read-out: LUCIFERASE INFECTION ASSAY - IC50): 9.76 µM |
| COc1ccc(C(=O)/C(=C/c2ccc(C)cc2C)c2nc3ccccc3[nH]2)cc1 | 4.07 | IC50 (FFLUC_HILL_SLOPE 13.7, FFLUC_R_SQUARED 0.282, HEPG2TOX_HILL_SLOPE 10.4, HEPG2TOX_R_SQUARED 0.664, PBLUC_HILL_SLOPE 15.9, PBLUC_R_SQUARED 0.277, read-out: LUCIFERASE INFECTION ASSAY - IC50): 3.54 µM |
| CC(C)CNc1nn2c(-c3cccc(C(=O)N(C)C)c3)cnc2s1 | > 9.61 | IC50 (FFLUC_HILL_SLOPE 13.4, FFLUC_R_SQUARED 0.472, read-out: LUCIFERASE INFECTION ASSAY - IC50): > 9.61 µM |
| CCN(CC)S(=O)(=O)c1ccc(SC(C)C(=O)Nc2ccc(OC(F)(F)F)cc2)nc1 (configuration not stated) | > 10 | IC50 (FFLUC_HILL_SLOPE 13.8, FFLUC_R_SQUARED 0.75, read-out: LUCIFERASE INFECTION ASSAY - IC50): > 10 µM |
| O=C(Nc1ccc(OC(F)(F)F)cc1)Nc1ccc2nc(-c3ccsc3)nn2c1 | 9.37 | IC50 (FFLUC_HILL_SLOPE 13.4, FFLUC_R_SQUARED 0.266, PBLUC_HILL_SLOPE 2.61, PBLUC_R_SQUARED 0.893, read-out: LUCIFERASE INFECTION ASSAY - IC50): 4.04 µM |
| Cc1cc(Cl)c(C)c(S(=O)(=O)Nc2ccccc2N2CCN(C)CC2)c1Cl | > 10 | IC50 (FFLUC_HILL_SLOPE 13.7, FFLUC_R_SQUARED 0.171, read-out: LUCIFERASE INFECTION ASSAY - IC50): > 10 µM |
| CCn1c2ccccc2c2cc(NC(=O)CN3C(=O)NC4(CCCc5ccccc54)C3=O)ccc21 (configuration not stated) | 9.72 | IC50 (FFLUC_HILL_SLOPE 13.4, FFLUC_R_SQUARED 0.411, HEPG2TOX_HILL_SLOPE 9.13, HEPG2TOX_R_SQUARED 0.498, PBLUC_HILL_SLOPE 3.53, PBLUC_R_SQUARED 0.448, read-out: LUCIFERASE INFECTION ASSAY - IC50): 5.21 µM |
| CC(C)(C)c1cc(C(=O)Nc2ccc(Br)c(Cl)c2)n(Cc2ccccc2)n1 | > 7.39 | IC50 (FFLUC_HILL_SLOPE 13.4, FFLUC_R_SQUARED 0.471, HEPG2TOX_HILL_SLOPE 9.89, HEPG2TOX_R_SQUARED 0.67, PBLUC_HILL_SLOPE 12.6, PBLUC_R_SQUARED 0.293, read-out: LUCIFERASE INFECTION ASSAY - IC50): > 7.39 µM |
| COc1cccc(-c2nc3ccc(NC(=O)Nc4ccc(Cl)c(C(F)(F)F)c4)cn3n2)c1 | 9.24 | IC50 (FFLUC_HILL_SLOPE 14.4, FFLUC_R_SQUARED 0.104, PBLUC_HILL_SLOPE 6.95, PBLUC_R_SQUARED 0.291, read-out: LUCIFERASE INFECTION ASSAY - IC50): 6.74 µM |
| Cn1c(-c2cccc(C(F)(F)F)c2)cc2c(Nc3cccnc3)nccc21 | > 10 | IC50 (FFLUC_HILL_SLOPE 13.4, FFLUC_R_SQUARED 0.159, PBLUC_HILL_SLOPE 11.7, PBLUC_R_SQUARED 0.342, read-out: LUCIFERASE INFECTION ASSAY - IC50): 9.06 µM |
| CCOC(=O)c1c(C)[nH]c(C(=O)CSc2nccn2C)c1C | 0.204 | IC50 (FFLUC_HILL_SLOPE 13.6, FFLUC_R_SQUARED 0.648, PBLUC_HILL_SLOPE 159, PBLUC_R_SQUARED 0.464, read-out: LUCIFERASE INFECTION ASSAY - IC50): 0.201 µM |
| O=C(Cn1ncc(Cl)c(Cl)c1=O)Nc1cc(Cl)ccc1[N+](=O)[O-] | 3.5 | IC50 (FFLUC_HILL_SLOPE 13.5, FFLUC_R_SQUARED 0.43, HEPG2TOX_HILL_SLOPE 9.94, HEPG2TOX_R_SQUARED 0.973, PBLUC_HILL_SLOPE 20.4, PBLUC_R_SQUARED 0.69, read-out: LUCIFERASE INFECTION ASSAY - IC50): 3.14 µM |
| CCCN1C(=O)c2[nH]nc(-c3ccccc3O)c2C1c1ccc(Cl)cc1 (configuration not stated) | > 8.97 | IC50 (FFLUC_HILL_SLOPE 13.6, FFLUC_R_SQUARED 0.713, HEPG2TOX_HILL_SLOPE 5.14, HEPG2TOX_R_SQUARED 0.579, read-out: LUCIFERASE INFECTION ASSAY - IC50): > 8.97 µM |
| CCC(C)NC(=O)c1c(NC(=O)c2ccc(Cl)cc2Cl)nc2ccc(C)cn12 (configuration not stated) | 0.967 | IC50 (FFLUC_HILL_SLOPE 13.5, FFLUC_R_SQUARED 0.613, HEPG2TOX_HILL_SLOPE 1.25, HEPG2TOX_R_SQUARED 0.963, PBLUC_HILL_SLOPE 11.1, PBLUC_R_SQUARED 0.736, read-out: LUCIFERASE INFECTION ASSAY - IC50): 0.793 µM |

| SMILES | IC90 [µM] | other results |
| --- | --- | --- |
| CCOC(=O)c1sc(SCc2ccc(Cl)cc2)c(S(=O)(=O)C(C)C)c1-n1cccc1 | > 6.82 | IC50 (FFLUC_HILL_SLOPE 13.5, FFLUC_R_SQUARED 0.375, read-out: LUCIFERASE INFECTION ASSAY - IC50): > 6.82 µM |
| O=C1C(=O)N(Cc2cc3c(cc2Cl)OCO3)c2ccc(Br)cc21 | > 8.36 | IC50 (FFLUC_HILL_SLOPE 13.4, FFLUC_R_SQUARED 0.714, HEPG2TOX_HILL_SLOPE 8.11, HEPG2TOX_R_SQUARED 0.359, PBLUC_HILL_SLOPE 6.2, PBLUC_R_SQUARED 0.151, read-out: LUCIFERASE INFECTION ASSAY - IC50): 7.48 µM |
| COc1cc(C(=O)N(C)C(c2ccccc2)c2ccccc2)ccc1OCC(C)C | > 10 | IC50 (FFLUC_HILL_SLOPE 13.6, FFLUC_R_SQUARED 0.558, HEPG2TOX_HILL_SLOPE 7.8, HEPG2TOX_R_SQUARED 0.217, read-out: LUCIFERASE INFECTION ASSAY - IC50): > 10 µM |
| COc1ccc(CC(=O)N2CCC3(CC2)OCc2ccccc2O3)cc1 | > 9.34 | IC50 (FFLUC_HILL_SLOPE 13.5, FFLUC_R_SQUARED 0.0841, HEPG2TOX_HILL_SLOPE 0.312, HEPG2TOX_R_SQUARED 0.567, read-out: LUCIFERASE INFECTION ASSAY - IC50): > 9.34 µM |
| O=S(=O)(c1ccc2oc(Nc3ccc(Nc4ccccc4)cc3)nc2c1)N1CCOCC1 | > 10 | IC50 (FFLUC_HILL_SLOPE 13.7, FFLUC_R_SQUARED 0.693, PBLUC_HILL_SLOPE 9.99, PBLUC_R_SQUARED 0.314, read-out: LUCIFERASE INFECTION ASSAY - IC50): 9.23 µM |
| Cc1ccc(CN2C(=O)C(O)(c3c[nH]c4ccccc34)c3ccccc32)c(C)c1 (configuration not stated) | 6.05 | IC50 (FFLUC_HILL_SLOPE 13.6, FFLUC_R_SQUARED 0.607, PBLUC_HILL_SLOPE 3.72, PBLUC_R_SQUARED 0.631, read-out: LUCIFERASE INFECTION ASSAY - IC50): 3.35 µM |
| O=C(NC(=S)NNc1ncc(C(F)(F)F)cc1Cl)c1cccs1 | 1.1 | IC50 (FFLUC_HILL_SLOPE 14.4, FFLUC_R_SQUARED 0.344, HEPG2TOX_HILL_SLOPE 0.95, HEPG2TOX_R_SQUARED 0.974, PBLUC_HILL_SLOPE 2.04, PBLUC_R_SQUARED 0.707, read-out: LUCIFERASE INFECTION ASSAY - IC50): 0.374 µM |
| Cc1ccc(-c2csc3[nH]c(CNC(C)c4ccc5c(c4)CCCC5)nc(=O)c23)s1 (configuration not stated) | > 10 | IC50 (FFLUC_HILL_SLOPE 13.5, FFLUC_R_SQUARED 0.414, HEPG2TOX_HILL_SLOPE 0.395, HEPG2TOX_R_SQUARED 0.365, read-out: LUCIFERASE INFECTION ASSAY - IC50): > 10 µM |
| CC(=O)c1ccc(NC(=O)Cn2nc(-c3ccco3)ccc2=O)cc1 | > 9.78 | IC50 (FFLUC_HILL_SLOPE 14.3, FFLUC_R_SQUARED 0.29, read-out: LUCIFERASE INFECTION ASSAY - IC50): > 9.78 µM |
| CCOC(=O)Nc1ccc2c(Cn3cnc4sc5c(c4c3=O)CCC5)cc(=O)oc2c1 | > 10 | IC50 (FFLUC_HILL_SLOPE 14, FFLUC_R_SQUARED 0.282, read-out: LUCIFERASE INFECTION ASSAY - IC50): > 10 µM |
| CC(C)(C)c1cc(NC(=O)CSc2ccc(Cl)cc2)c(C(N)=O)s1 | > 8.62 | IC50 (FFLUC_HILL_SLOPE 13.8, FFLUC_R_SQUARED 0.177, HEPG2TOX_HILL_SLOPE 8.22, HEPG2TOX_R_SQUARED 0.725, read-out: LUCIFERASE INFECTION ASSAY - IC50): > 8.62 µM |
| Cc1c(C(=O)C(F)(F)F)c(-c2nn(-c3ccccc3)c(NC(=O)C(F)(F)F)c2C(=O)C(F)(F)F)c(C)n1-c1ccc(F)cc1 | > 10 | IC50 (FFLUC_HILL_SLOPE 13.3, FFLUC_R_SQUARED 0.772, PBLUC_HILL_SLOPE 3.36, PBLUC_R_SQUARED 0.0987, read-out: LUCIFERASE INFECTION ASSAY - IC50): 8.23 µM |
| CC(C)c1nc(N2CCN(CC(=O)N3CCCC3)CC2)c(C#N)c2c1CCC2 | 2.94 | IC50 (FFLUC_HILL_SLOPE 13.3, FFLUC_R_SQUARED 0.232, PBLUC_HILL_SLOPE 4.16, PBLUC_R_SQUARED 0.67, read-out: LUCIFERASE INFECTION ASSAY - IC50): 1.73 µM |
| Clc1ccc2nc(CSc3nnc4c(n3)[nH]c3ccccc34)cn2c1 | 9.67 | IC50 (FFLUC_HILL_SLOPE 14.4, FFLUC_R_SQUARED 0.465, PBLUC_HILL_SLOPE 2.72, PBLUC_R_SQUARED 0.431, read-out: LUCIFERASE INFECTION ASSAY - IC50): 4.31 µM |
| O=c1c2c3c(sc2nc(SCc2nc4ccc(Cl)cc4n2CCO)n1CC1CCCO1)CCC3 (configuration not stated) | > 10 | IC50 (FFLUC_HILL_SLOPE 13.3, FFLUC_R_SQUARED 0.41, read-out: LUCIFERASE INFECTION ASSAY - IC50): > 10 µM |
